In patent US20110009453A1, “S1P3 RECEPTOR INHIBITORS FOR TREATING INFLAMMATION” (priority 2008, published 2011):
Where two headings read alike, the source gives them in different places.

Legend:
[1] = target: T1, human S1P3 receptor (Homo sapiens, UniProt Q99500); test: FLIPR assay in T24 cells stably expressing the human S1P3 receptor; type: cell-based; conditions: for inhibition at 10 µM: T-24, read-out: S1P3 percent inhibition (in parenthesis)
T1 construct: expressed in transfected cells
Description: Another method of determining if a compound is an S1P3 receptor inhibitor is with a FLIPR assay. An example of this method is described in U.S. patent application Ser. No. 11/675,168, the contents of which are incorporated herein by reference. According to that application, compounds may be assessed for their ability to activate or block activation of the human S1P3 receptor in T24 cells stably expressing the human S1P3 receptor. In this assay ten thousand cells/well are plated into 384-well poly-D-lysine coated plates one day prior to use. The growth media for the S1P3 receptor expressing cell line is McCoy's 5A medium supplemented with 10% charcoal-treated fetal bovine serum (FBS), 1% antibiotic-antimycotic and 400 μg/ml geneticin. On the day of the experiment, the cells are washed twice with Hank's Balanced Salt Solution supplemented with 20 mM HEPES (HBSS/Hepes buffer). The cells are then dye loaded with 2 uM Fluo-4 diluted in the HBSS/Hepes buffer with 1.25 mM Probenecid and incubated at 37° C. for 40 minutes. Extracellular dye is removed by washing the cell plates four times prior to placing the plates in the FLIPR (Fluorometric Imaging Plate Reader, Molecular Devices). Ligands are diluted in HBSS/Hepes buffer and prepared in 384-well microplates. The positive control, S1P, is diluted in HBSS/Hepes buffer with 4 mg/ml fatty acid free bovine serum albumin. The FLIPR transfers 12.5 μl from the ligand microplate to the cell plate and takes fluorescent measurements for 75 seconds, taking readings every second, and then for 2.5 minutes, taking readings every 10 seconds. Drugs are tested over the concentration range of to 0.61 nM to 10,000 nM. Data for Ca^+2 responses is obtained in arbitrary fluorescence units and not translated into Ca^+2 concentrations. IC50 values are determined through a […] analysis using the Levenburg Marquardt algorithm.
Examples of such compounds include the following. […] The EC50 and IC50 values expressed in the following table were obtained in the FLIPR assay described above. EC50 or IC50 values are stated first, followed by percent efficacy or percent inhibition stated in parenthesis. In this table and the next, percent efficacy is defined as percent of receptor activity induced by a test compound at the highest dose tested (10 μM) relative to the receptor activity induced by 5 nM sphingosine-1-phosphate, and percent inhibition is defined as percent of receptor activity induced by 5 nM sphingosine-1-phosphate that is inhibited by a test compound at the highest dose tested (10 μM). “NA” means that no activity was detected at highest dose tested; “ND” means not determined.
The IC50 values expressed below were obtained in the FLIPR assay described above. IC50 values are stated first (except as otherwise noted), followed by percent efficacy or percent inhibition in parenthesis.

[2] = target: S1P1 receptor (Homo sapiens, UniProt P21453); test: FLIPR assay (Ca2+ response), S1P1 receptor; type: cell-based
[3] = percent of activity induced by 5 nM sphingosine-1-phosphate inhibited at 10 μM, table of additional selective S1P3 inhibitors
[4] = FLIPR, table of additional selective S1P3 inhibitors, read-out: S1P3 (IC50)
[5] = FLIPR, values given in μM, read-out: S1P3 (IC50)
[6] = percent of activity induced by 5 nM sphingosine-1-phosphate inhibited at highest dose tested (10 μM)
[7] = tested 0.61 nM to 10,000 nM, NA = no activity detected at highest dose tested, read-out: S1P1 (EC50)
[8] = FLIPR, values in nM, read-out: S1P3 (IC50)

T1 sequence (Q99500 whole entry): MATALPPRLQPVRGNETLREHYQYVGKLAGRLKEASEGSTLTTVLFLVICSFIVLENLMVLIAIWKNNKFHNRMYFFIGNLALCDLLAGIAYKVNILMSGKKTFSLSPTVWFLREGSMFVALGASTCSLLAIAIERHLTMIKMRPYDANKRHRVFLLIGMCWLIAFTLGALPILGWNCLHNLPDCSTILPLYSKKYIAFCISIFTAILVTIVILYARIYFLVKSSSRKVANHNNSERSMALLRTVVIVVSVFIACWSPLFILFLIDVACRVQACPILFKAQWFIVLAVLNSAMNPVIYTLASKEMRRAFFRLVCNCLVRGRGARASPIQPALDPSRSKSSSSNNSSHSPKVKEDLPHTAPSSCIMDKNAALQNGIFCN
Sequence of S1P1 receptor (P21453 whole entry): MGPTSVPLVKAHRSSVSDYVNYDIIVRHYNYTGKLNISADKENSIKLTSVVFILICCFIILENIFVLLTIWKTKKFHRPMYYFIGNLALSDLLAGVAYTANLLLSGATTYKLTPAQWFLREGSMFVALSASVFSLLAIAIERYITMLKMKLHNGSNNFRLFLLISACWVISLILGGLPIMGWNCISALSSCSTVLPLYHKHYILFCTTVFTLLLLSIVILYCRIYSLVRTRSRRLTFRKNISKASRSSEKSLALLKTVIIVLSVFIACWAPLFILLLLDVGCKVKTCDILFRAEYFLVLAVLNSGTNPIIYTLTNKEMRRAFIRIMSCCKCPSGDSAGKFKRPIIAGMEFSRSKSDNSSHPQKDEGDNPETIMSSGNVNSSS

| SMILES | inhibition at 10 µM [1, 3] [%] | IC50 [1, 5] [µM] | inhibition at 10 µM [1, 6] [%] | also measured |
| --- | --- | --- | --- | --- |
| CC(C)c1c(C(=O)NCc2ccc(F)c(F)c2)c2cc(O)ccc2n1Cc1ccccc1 | 98 |  |  | IC50 [1]: 0.035 µM |
| O=C(NCc1ccc(F)c(F)c1)c1c(C2CCCC2)n(Cc2ccccc2)c2ccc(O)cc12 | 100 |  |  | IC50 [1, 4]: 0.031 µM |
| CC(C)c1c(C(=O)NCc2ccc(F)c(F)c2)c2ccccc2n1Cc1ccccc1 | 100 |  |  | IC50 [1]: 0.209 µM |
| CCOc1ccc2c(C(=O)NCc3ccc(F)c(F)c3)c(C(C)C)n(Cc3ccccc3)c2c1 | 100 |  |  | IC50 [1]: 0.019 µM |
| CCCOc1ccc2c(C(=O)NCc3ccc(F)c(F)c3)c(C(C)C)n(Cc3ccccc3)c2c1 | 100 |  |  | IC50 [1]: 0.005 µM |
| CC(C)Oc1ccc2c(C(=O)NCc3ccc(F)c(F)c3)c(C(C)C)n(Cc3ccccc3)c2c1 | 100 |  |  | IC50 [1]: 0.006 µM |
| O=C(NCc1ccc(F)c(F)c1)c1c(C2CCCC2)n(Cc2ccccn2)c2ccc(O)cc12 | 99 |  |  | IC50 [1, 4]: 0.017 µM |
| O=P(O)(O)CCCNCc1ccc(-c2ccccc2)c(-c2ccccc2)n1 [Compound 146] |  | 1.6 | 83 |  |
| Cc1ccc(-c2ccc(CNCCCP(=O)(O)O)nc2-c2ccccc2)cc1 [Compound 147] |  |  | 98 | EC50 [2, 7]: 121 nM; IC50 [1, 8]: 0.231 µM |
| CCc1ccc(-c2ccc(CNCCCP(=O)(O)O)nc2-c2ccccc2)cc1 [Compound 148] |  |  | 98 | EC50 [2, 7]: 170 nM; IC50 [1, 8]: 0.319 µM |
| CCc1ccc(-c2ccc(CNCCP(=O)(O)O)nc2-c2ccccc2)cc1 [Compound 149] |  | 1.8 | 99 |  |
| O=P(O)(O)CCCNCc1ccc(-c2ccc(C(F)(F)F)cc2)c(-c2ccccc2)n1 [Compound 150] |  |  | 95 |  |
| CCc1ccc(-c2ccc(CNCCCP(=O)(O)O)nc2-c2ccncc2)cc1 [Compound 151] |  | 1.1 | 95 |  |
| CCc1ccc(-c2ccc(CNCCP(=O)(O)O)nc2-c2ccncc2)cc1 [Compound 152] |  | 1.8 | 68 |  |
| CCc1ccc(-c2ccc(CNCCCCP(=O)(O)O)nc2-c2ccccc2)cc1 [Compound 153] |  |  | 30 |  |
| CCCc1ccc(-c2ccc(CNCCCP(=O)(O)O)nc2-c2ccccc2)cc1 [Compound 154] |  |  | 98 | EC50 [2, 7]: 114 nM; IC50 [1, 8]: 0.319 µM |
| CCc1ccc(-c2ccc(COCCCP(=O)(O)O)nc2-c2ccccc2)cc1 [Compound 155] |  | 4 | 27 |  |
| Cc1ccc(-c2ccc(COCCCP(=O)(O)O)nc2-c2ccccc2)cc1 [Compound 156] |  | 1.9 | 11 |  |
| CCc1ccc(-c2ccc(CNCCCP(=O)(O)O)nc2-c2ccccc2)cc1 [drawing 165] |  |  |  | EC50 ([2]; table of additional selective S1P3 inhibitors, read-out: S1P1 EC50 (noted in IC50 column)): 170 nM; IC50 [1, 4]: 0.319 µM; S1P3 percent inhibition (in parenthesis) [1, 3]: 98% |
